Results reported in patent publication US9174980B2, “Heterocyclic compounds as inhibitors of leukotriene production” (Boehringer Ingelheim International GmbH, priority 2012, dated 2015).

Assays:
[1] = target: T1, recombinant human FLAP protein (Homo sapiens, UniProt P20292); assay: FLAP binding assay (Scintillation Proximity Assay, displacement of [125I]L-691,831); details: read-out: Human FLAP SPA Binding (IC50 nM)
T1 construct: made in house; host or cells: Sf9 insect cells (membrane fraction, 100,000 x g pellet)
T1 sequence (P20292 1-161): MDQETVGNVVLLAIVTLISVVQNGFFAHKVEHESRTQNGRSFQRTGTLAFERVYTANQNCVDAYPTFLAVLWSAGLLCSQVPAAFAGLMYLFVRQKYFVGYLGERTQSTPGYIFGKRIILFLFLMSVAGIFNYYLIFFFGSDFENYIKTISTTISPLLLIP
Procedure, shortened: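 Membranes from sf9 cells expressing recombinant human FLAP (5 μg/well) on WGA SPA beads were incubated with compound and 0.08 nM [125I]L-691,831 in Tris pH 7.5 binding buffer, shaken 2 h. Displacement read by scintillation proximity; non-specific binding set with 10 μM unlabelled L-691,831.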

[2] = tested on: synthesis of LTB4 in human whole blood; assay: Human whole blood assay (calcimycin-stimulated LTB4 synthesis); format: cell-based; details: Homo sapiens; read-out: Human Whole Blood LTB4 Assay for FLAP (IC50 nM)
Procedure, shortened: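 Readout: plasma LTB4 by antibody-based HTRF. Compound added to heparinized human whole blood, 15 min 37° C; calcimycin 20 μM final (PBS pH 7.4), 30 min 37° C; spun 1500×g 5 min, plasma taken.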

Row | SMILES | IC50 [1] | IC50 [2]
1 | Nc1ncc(-c2ccc(C3(c4nc(-c5cccnc5)no4)CCC3)cc2)cn1 [Example 92, 5-(4-{1-[3-(pyridin-3-yl)-1,2,4-oxadiazol-5-yl]cyclobutyl}phenyl)pyrimidin-2-amine] | 9.1 nM | 840 nM
2 | Nc1ncc(-c2ccc(C3(c4nnc(-c5ccccc5)o4)CCC3)cc2)cn1 [Example 93, 5-{4-[1-(5-phenyl-1,3,4-oxadiazol-2-yl)cyclobutyl]phenyl}pyrimidin-2-amine] | 29 nM | > 5000 nM
3 | Nc1ncc(-c2ccc(C3(c4nnc(-c5cccnc5)o4)CCC3)cc2)cn1 [Example 94, 5-(4-{1-[5-(pyridin-3-yl)-1,3,4-oxadiazol-2-yl]cyclobutyl}phenyl)pyrimidin-2-amine] | 120 nM | 2800 nM
4 | Cn1cc(C2(c3ccc(-c4cnc(N)nc4)cc3)CCC2)c2cccnc21 [Example 95, 5-{4-[1-(1-methyl-1H-pyrrolo[2,3-b]pyridin-3-yl)cyclobutyl]phenyl}pyrimidin-2-amine] | 5 nM | 960 nM
5 | CC(C)C(C)(c1ccc(-c2cnc(N)nc2)cc1)c1n[nH]c(-c2ccccc2)n1 (centres unmarked) [Example 96, 5-{4-[3-methyl-2-(5-phenyl-1H-1,2,4-triazol-3-yl)butan-2-yl]phenyl}pyrimidin-2-amine] | 1.4 nM | 240 nM
6 | CC(C)C(C)(c1ccc(-c2cnc(N)nc2)cc1)c1nnc(-c2ccccc2)o1 (centres unmarked) [Example 97, 5-{4-[3-methyl-2-(5-phenyl-1,3,4-oxadiazol-2-yl)butan-2-yl]phenyl}pyrimidin-2-amine] | 14 nM | 4100 nM
7 | CC(C)C(C)(c1ccc(-c2cnc(N)nc2)cc1)c1c[nH]c2c(C(=O)N3CCC(O)C3)cccc12 (centres unmarked) [Example 98, (3-{2-[4-(2-aminopyrimidin-5-yl)phenyl]-3-methylbutan-2-yl}-1H-indol-7-yl)(3-hydroxypyrrolidin-1-yl)methanone] | 0.6 nM | 360 nM
8 | CC(C)C(C)(c1ccc(-c2cnc(N)nc2)cc1)c1c[nH]c2c(C(=O)N(C)CCO)cccc12 (centres unmarked) [Example 99, 3-[1-[4-(2-aminopyrimidin-5-yl)phenyl]-1,2-dimethyl-propyl]-N-(2-hydroxyethyl)-N-methyl-1H-indole-7-carboxamide] | 0.93 nM | 1600 nM
9 | COc1cncc(-c2ccc(C(c3ncc(-c4cnc(N)nc4)s3)C(C)C)cc2)c1 (centres unmarked) [Example 100] | 18 nM | 2100 nM
10 | CC(C)C(C)(c1ccc(-c2cnc(N)nc2)cc1)c1nc(-c2cccnc2)no1 (centres unmarked) [Example 101, 5-(4-{3-methyl-2-[3-(pyridin-3-yl)-1,2,4-oxadiazol-5-yl]butan-2-yl}phenyl)pyrimidin-2-amine] | 12 nM | 1400 nM
11 | Nc1ncc(-c2ccc(C3(c4nnc(-c5cccnc5)[nH]4)CCC3)cc2)cn1 [Example 102, 5-(4-{1-[5-(pyridin-3-yl)-4H-1,2,4-triazol-3-yl]cyclobutyl}phenyl)pyrimidin-2-amine] | 3.7 nM | 900 nM
12 | Nc1ncc(-c2ccc(C3(c4c[nH]c5ncccc45)CCC3)cc2)cn1 [Example 103, 5-{4-[1-(1H-pyrrolo[2,3-b]pyridin-3-yl)cyclobutyl]phenyl}pyrimidin-2-amine] | 2.5 nM | 160 nM
13 | CC(C)C(C)(c1ccc(-c2cnc(N)nc2)cc1)c1nc2ccccc2[nH]1 (centres unmarked) [Example 104, 5-{4-[2-(1H-benzimidazol-2-yl)-3-methylbutan-2-yl]phenyl}pyrimidin-2-amine] | 8.6 nM | 1900 nM
14 | CN(CCO)C(=O)c1ccc2[nH]cc(C3(c4ccc(-c5cnc(N)nc5)cc4)CCC3)c2c1 [Example 105, 3-{1-[4-(2-aminopyrimidin-5-yl)phenyl]cyclobutyl}-N-(2-hydroxyethyl)-N-methyl-1H-indole-5-carboxamide] | 91 nM | > 5000 nM
15 | Nc1ncc(-c2ccc(C3(c4c[nH]c5cc(C(=O)N6CCC(O)C6)ccc45)CCC3)cc2)cn1 (centres unmarked) [Example 106, (3-{1-[4-(2-aminopyrimidin-5-yl)phenyl]cyclobutyl}-1H-indol-6-yl)(3-hydroxypyrrolidin-1-yl)methanone] | 0.91 nM | 4100 nM
16 | Nc1ncc(-c2ccc(C3(c4c[nH]c5c(C(=O)N6CCC(O)C6)cccc45)CCC3)cc2)cn1 (centres unmarked) [Example 107, (3-{1-[4-(2-aminopyrimidin-5-yl)phenyl]cyclobutyl}-1H-indol-7-yl)(3-hydroxypyrrolidin-1-yl)methanone] | 1.2 nM | 180 nM
17 | Nc1ncc(-c2ccc(C3(c4c[nH]c5cccnc45)CCC3)cc2)cn1 [Example 108, 5-{4-[1-(1H-pyrrolo[3,2-b]pyridin-3-yl)cyclobutyl]phenyl}pyrimidin-2-amine] | 3 nM | 360 nM

Row | SMILES | IC50 [1] | IC50 [2]
18 | Nc1ncc(-c2ccc(C3(c4c[nH]c5cnccc45)CCC3)cc2)cn1 [Example 109, 5-{4-[1-(1H-pyrrolo[2,3-c]pyridin-3-yl)cyclobutyl]phenyl}pyrimidin-2-amine] | 1.3 nM | 71 nM
19 | Nc1ncc(-c2ccc(C3(c4c[nH]c5ccncc45)CCC3)cc2)cn1 [Example 110, 5-{4-[1-(1H-pyrrolo[3,2-c]pyridin-3-yl)cyclobutyl]phenyl}pyrimidin-2-amine] | 87 nM | 1500 nM
20 | Nc1ncc(-c2ccc(C3(c4cn(CCO)c5ccccc45)CCC3)cc2)cn1 [Example 111, 2-(3-{1-[4-(2-aminopyrimidin-5-yl)phenyl]cyclobutyl}-1H-indol-1-yl)ethanol] | 1.5 nM | > 5000 nM
21 | CC(C)C(C)(c1ccc(-c2cnc(N)nc2)cc1)c1nc2ccccc2o1 (centres unmarked) [Example 112, 5-{4-[2-(1,3-benzoxazol-2-yl)-3-methylbutan-2-yl]phenyl}pyrimidin-2-amine] | 3.2 nM | 570 nM
22 | Nc1ncc(-c2ccc(C3(c4c[nH]c5c(C(=O)N6CC(O)C6)cccc45)CCC3)cc2)cn1 [Example 113, (3-{1-[4-(2-aminopyrimidin-5-yl)phenyl]cyclobutyl}-1H-indol-7-yl)(3-hydroxyazetidin-1-yl)methanone] | 1.1 nM | 100 nM
23 | Nc1ncc(-c2ccc(C3(c4c[nH]c5c(C(=O)N6CCS(=O)(=O)CC6)cccc45)CCC3)cc2)cn1 [Example 114] | 2.3 nM | 380 nM
24 | CN(CCO)C(=O)c1cccc2c(C3(c4ccc(-c5cnc(N)nc5)cc4)CCC3)c[nH]c12 [Example 115, 3-{1-[4-(2-aminopyrimidin-5-yl)phenyl]cyclobutyl}-N-(2-hydroxyethyl)-N-methyl-1H-indole-7-carboxamide] | 2.6 nM | 1100 nM
25 | COCCN(C)C(=O)c1cccc2c(C3(c4ccc(-c5cnc(N)nc5)cc4)CCC3)c[nH]c12 [Example 116, 3-{1-[4-(2-aminopyrimidin-5-yl)phenyl]cyclobutyl}-N-(2-methoxyethyl)-N-methyl-1H-indole-7-carboxamide] | 2.5 nM | 270 nM
26 | NC(=O)c1cccc2c(C3(c4ccc(-c5cnc(N)nc5)cc4)CCC3)c[nH]c12 [Example 117, 3-{1-[4-(2-aminopyrimidin-5-yl)phenyl]cyclobutyl}-1H-indole-7-carboxamide] | 1.1 nM | 30 nM
27 | Nc1ncc(-c2ccc(C3(c4c[nH]c5ccccc45)CCC3)cc2)cc1CO [Example 118, [2-amino-5-[4-[1-(1H-indol-3-yl)cyclobutyl]phenyl]-3-pyridyl]methanol] | 1.6 nM | 69 nM
28 | Nc1ncc(-c2ccc(C3(c4c[nH]c5c(C(=O)NCCO)cccc45)CCC3)cc2)cn1 [Example 119, 3-{1-[4-(2-aminopyrimidin-5-yl)phenyl]cyclobutyl}-N-(2-hydroxyethyl)-1H-indole-7-carboxamide] | 1.5 nM | 170 nM
29 | Nc1ncc(-c2ccc(C3(c4cn(CCOCCO)c5ccccc45)CCC3)cc2)cn1 [Example 120, 2-[2-(3-{1-[4-(2-aminopyrimidin-5-yl)phenyl]cyclobutyl}-1H-indol-1-yl)ethoxy]ethanol] | 4.7 nM | > 5000 nM
30 | Nc1ncc(-c2ccc(C3(c4nnc(-c5ccccc5)[nH]4)CCC3)cn2)cn1 [Example 121, 5-{5-[1-(5-phenyl-4H-1,2,4-triazol-3-yl)cyclobutyl]pyridin-2-yl}pyrimidin-2-amine] | 8.7 nM | 810 nM
31 | Cn1cc(C(c2ccc(-c3cnc(N)nc3)nc2)C(C)(C)C)c2ccccc21 (centres unmarked) [Example 122, 5-{5-[2,2-dimethyl-1-(1-methyl-1H-indol-3-yl)propyl]pyridin-2-yl}pyrimidin-2-amine] | 75 nM | > 5000 nM
32 | COC(=O)Cn1cc(C2(c3ccc(-c4cnc(N)nc4)cc3)CCC2)c2ccccc21 [Example 123, methyl (3-{1-[4-(2-aminopyrimidin-5-yl)phenyl]cyclobutyl}-1H-indol-1-yl)-acetate] | 7.9 nM | > 5000 nM
33 | Nc1ncc(-c2ccc(C3(c4cn(CC(=O)O)c5ccccc45)CCC3)cc2)cn1 [Example 124, (3-{1-[4-(2-aminopyrimidin-5-yl)phenyl]cyclobutyl}-1H-indol-1-yl)acetic acid] | 5.5 nM | > 5000 nM
34 | Nc1ncc(-c2ccc(C3(c4nc5ncccc5[nH]4)CCC3)cc2)cn1 [Example 125, 5-{4-[1-(1H-imidazo[4,5-b]pyridin-2-yl)cyclobutyl]phenyl}pyrimidin-2-amine] | 250 nM | 3400 nM
